Experimental data published in PMC12155845, “Antimicrobial Activity of Copper(II), Nickel(II) and Zinc(II) Complexes with Semicarbazone and Thiosemicarbazone Ligands Derived from Substituted Salicylaldehydes” (Molecules, 2025).

What follows are compounds tested on HEL 299 fibroblasts (ATCC-CCL-137) (assay: Cell viability and proliferation assay (WST8/CCK-8)). Conditions: ligand at 100 μM; mean values and standard deviations.
Format: cell-based, human
Procedure: HEL 299 cells, obtained from the American Type Culture Collection (ATCC-CCL-137), were selected to investigate the effect of the metal complexes on non-malignant human fibroblasts. Briefly, cells were cultured in Eagle’s Minimum Essential Medium (EMEM) supplemented with 10% fetal bovine serum (FBS), 100 U/mL penicillin and 100 µg/mL streptomycin at 37 °C with 5% CO2. For the biological assays, cells were grown in 96-well plates at 10^4 cells/well. After 24 h of incubation at 37 °C, the monolayer was treated with 100 µL of medium containing the 2-fold serial dilutions of the compounds in the range 100–0.19 µM. Cell viability was assessed by a colorimetric WST8-based assay according to the manufacturer’s instructions (CCK-8, Cell Counting Kit-8, Dojindo Molecular Technologies, Rockville, MD, USA) by measuring the OD at 450 nm. Data are expressed as the percentage of cell viability relative to the untreated controls. The CC50 was obtained on the corresponding dose–response curves generated as previously reported for IC50 values.

Compound	Cell proliferation, HEL 299 (Table S1)
COc1cc(S(=O)(=O)[O-])cc(/C=N/NC(N)=S)c1O.[Na+] [NaH2L4]	85.6 ± 10.2
CCNC(=S)N/N=C/c1cc(S(=O)(=O)[O-])cc(OC)c1O.[Na+] [NaH2L5]	90.0 ± 4.9
COc1cc(S(=O)(=O)[O-])cc(/C=N/NC(N)=O)c1O.[Na+] [NaH2L6]	90.3 ± 0.8
CCCCCCCC(=O)N/N=C/c1cc(S(=O)(=O)[O-])cc(OC)c1O.[Na+] [NaH2L7]	87.6 ± 4.9

What follows are compounds tested on Candida albicans ATCC 10231 (assay: Microdilution antifungal assay (CLSI), C. albicans). Conditions: fluconazole.
Format: cell-based
Text: Reference strains of Staphylococcus aureus (ATCC 25923), Escherichia coli (ATCC 25922) and Candida albicans (ATCC 10231) were used in this study as model systems. These laboratory strains were purchased from the American Type Culture Collection (ATCC) (Manassas, VA, USA). The cultures were routinely grown on 5% blood agar plates or Sabouraud Dextrose agar plates (Biolife Italiana S.r.l., Milan, Italy) and used freshly in the assays.
(§1) The antimicrobial properties of the metal complexes were determined by a previously established microdilution method in agreement with the Clinical and Laboratory Standard Institute (CLSI) guidelines. […] The metal complexes were two-fold serially diluted and tested in the range of 100–0.19 µM. Positive controls (in regular media), negative controls (only compounds), solvent controls (DMSO dilutions) and the reference drugs were included in the tests. The plate was incubated at 37 °C for 24 h, and the OD630nm was measured.

Compound	Microbial growth, C. albicans (Table S1)
OC(Cn1cncn1)(Cn1cncn1)c1ccc(F)cc1F [FCZ, fluconazole, reference compound]	10.0 ± 0.6

Same assay, conditions: fluconazole at 1.6 μM; mean and standard deviation

Compound	Percentage values of microbial growth, C. albicans [%]
OC(Cn1cncn1)(Cn1cncn1)c1ccc(F)cc1F [FCZ, fluconazole, reference compound]	10.0 ± 0.6

Same assay, conditions: ligand at 100 μM; mean values and standard deviations

Compound	Microbial growth, C. albicans (Table S1)
COc1cc(S(=O)(=O)[O-])cc(/C=N/NC(N)=S)c1O.[Na+] [NaH2L4]	95.6 ± 3.2
CCNC(=S)N/N=C/c1cc(S(=O)(=O)[O-])cc(OC)c1O.[Na+] [NaH2L5]	95.6 ± 7.5
COc1cc(S(=O)(=O)[O-])cc(/C=N/NC(N)=O)c1O.[Na+] [NaH2L6]	85.3 ± 1.6
CCCCCCCC(=O)N/N=C/c1cc(S(=O)(=O)[O-])cc(OC)c1O.[Na+] [NaH2L7]	83.2 ± 2.7

What follows are compounds tested on Escherichia coli ATCC 25922 (assay: Microdilution antimicrobial assay (CLSI), E. coli). Conditions: ligand at 100 μM; mean values and standard deviations.
Format: cell-based
Procedure: as §1, with “Reference strains of Staphylococcus aureus (ATCC 25923), Escherichia coli (ATCC 25922) and Candida albicans (ATCC 10231) were used in this study as model systems. These laboratory strains were purchased from the American Type Culture Collection (ATCC) (Manassas, VA, USA). […] The antimicrobial” for “The antimicrobial”, “range of 100-0.19 μM. Positive controls” for “range of 100–0.19 µM. Positive controls”

Compound	Microbial growth, E. coli (Table S1)
COc1cc(S(=O)(=O)[O-])cc(/C=N/NC(N)=S)c1O.[Na+] [NaH2L4]	100.2 ± 1.0
CCNC(=S)N/N=C/c1cc(S(=O)(=O)[O-])cc(OC)c1O.[Na+] [NaH2L5]	107.4 ± 0.9
COc1cc(S(=O)(=O)[O-])cc(/C=N/NC(N)=O)c1O.[Na+] [NaH2L6]	97.1 ± 0.7
CCCCCCCC(=O)N/N=C/c1cc(S(=O)(=O)[O-])cc(OC)c1O.[Na+] [NaH2L7]	101.9 ± 1.3

These compounds were tested on pmaxGFP plasmid DNA (assay: In vitro DNA cleavage/mobility shift assay (agarose gel electrophoresis)). Conditions: cisplatin at 500, 100 and 50, 37°C for 2 h, pmaxGFP.
Format: biochemical
Procedure: The nuclease activity of the metal complexes was investigated by means of gel electrophoresis after incubating the reaction mixtures (100 µM of sample and 200 ng of plasmid DNA) at 37 °C for 2 h. […] Thus, the assays with the metal complexes were performed in the absence and presence of H2O2 at 10 mM to check whether the DNA cleavage and damage take place through a hydrolytic or an oxidative mechanism.
Studies of the interactions between the metal compounds and plasmid DNA were carried out by agarose gel electrophoresis. Thus, 200 ng of pmaxGFP plasmid, 3527 bps, (Lonza, Basel, Switzerland) were incubated with the metal compounds at 100 μM in the absence or presence of 10 mM of H2O2 in Tris-HCl buffer (NaCl 50 mM, Tris-HCl 5 mM, pH 7.20). The mixture was incubated at 37 °C for 2 h, then the reactions were quenched by adding 5 μL of the loading buffer solution and analyzed by 1% agarose gel electrophoresis.

Compound	Binding interaction with plasmid DNA, electrophoresis mobility (in words)
N.N.[Cl][Pt][Cl] [CP, cisplatin, reference compound]	cause a shift of the electrophoresis mobility

Each compound was assayed on Staphylococcus aureus ATCC 25923 (assay: Microdilution antimicrobial assay (CLSI), S. aureus). Conditions: ligand at 100 μM; mean values and standard deviations.
Format: cell-based
Procedure: as §1, with “Reference strains of Staphylococcus aureus (ATCC 25923), Escherichia coli (ATCC 25922) and Candida albicans (ATCC 10231) were used in this study as model systems. These laboratory strains were purchased from the American Type Culture Collection (ATCC) (Manassas, VA, USA). […] The antimicrobial” for “The antimicrobial”, “range of 100-0.19 μM. Positive controls” for “range of 100–0.19 µM. Positive controls”

Compound	Microbial growth, S. aureus (Table S1)
COc1cc(S(=O)(=O)[O-])cc(/C=N/NC(N)=S)c1O.[Na+] [NaH2L4]	99.0 ± 3.5
CCNC(=S)N/N=C/c1cc(S(=O)(=O)[O-])cc(OC)c1O.[Na+] [NaH2L5]	98.4 ± 3.0
COc1cc(S(=O)(=O)[O-])cc(/C=N/NC(N)=O)c1O.[Na+] [NaH2L6]	86.5 ± 1.9
CCCCCCCC(=O)N/N=C/c1cc(S(=O)(=O)[O-])cc(OC)c1O.[Na+] [NaH2L7]	102.2 ± 1.9

What follows are compounds tested on human red blood cells (hRBCs) (assay: Hemolytic activity assay). Conditions: not given.
Format: cell-based
Procedure: The hemolytic activity of the metal complexes was evaluated as the amount of hemoglobin released by the disruption of human red blood cells (hRBCs). Briefly, a suspension of hRBCs (4% w/v in PBS) was prepared from the peripheral blood of anonymous blood donors available for research purposes. […] Then, the supernatants were spectrophotometrically evaluated at OD405nm. Untreated hRBCs (in PBS) and hRBCs incubated with 1% Triton X-100 were employed as negative and positive controls, respectively. The hemolysis percentage was calculated as [OD405nm (sample) − OD405nm (negative control)]/[OD405nm (positive control) − OD405nm (negative control)] × 100. Minimal hemolytic concentrations (MHCs) were defined as the compound concentration causing 10% hemolysis.

Compound	Percentage values of hemolytic activity, hRBCs [%]
Triton X-100 [reference compound]	100 ± 2.6
